Test results reported in patent publication EP0761222A1, “Use of orotic acid for the preparation of a medicament for amelioration of microcirculation” (WÖRWAG PHARMA GmbH, priority 1995, dated 1997).

How the values were obtained:
Type in all cases: in vivo
[1] = test system: Patienten mit Durchblutungsstörungen; test: Effect of a single oral dose of Magnesiumorotat on flow properties of human blood, blood pressure and transcutaneous oxygen pressure
Description: 10 Patienten mit Durchblutungsstörungen wurden 4 g Magnesiumorotat zusammen mit ca. 150 ml Wasser verabreicht. Die Blutentnahme erfolgte vor und im Abstand von 15, 30, 60, 120 und 180 Minuten nach der Tabletteneinnahme. Direkt vor jeder Blutentnahme wurden Blutdruck, Puls, der transkutane Sauerstoffdruck, der transkutane Kohlendioxiddruck und die Heizleistungsabweichung gemessen. Es wurden folgende Blutparameter untersucht: • Hämatokrit • BSC • Plasmaviskosität • Erythrozytenaggregation • Erythrozytenfiltrabilität.
Es wurde eine Senkung des systemischen Druckes, insbesondere des systolischen Druckes, bis zum Zeitpunkt 60 Minuten nach Tablettenvergabe festgestellt. Die relative Plasmaviskosität erreicht 60 Minuten nach Tabletteneinnahme ihr Minimum mit anschließender Tendenz zur Normalisierung. In ähnlicher Weise verhält sich die Blutviskosität, die 30 Minuten nach Tabletteneinnahme ein Minimum aufweist.
Besonders interessant sind die Veränderungen der transkutanen Sauerstoffdruckwerte, die im Bereich des Vorfußes abgenommen werden. Bei diesen Patienten mit einer chronisch-arteriellen Verschlußkrankheit sind die tcpO2-Werte bekannterweise nicht sonderlich erniedrigt. Die Ergebnisse der pO2-Werte zeigen doch, daß es zu einem Anstieg der pO2-Werte kommt, die zu dem Zeitpunkt 15 und 30 Minuten statistisch gesichert sind. Dieser Anstieg der tcpO2-Werte überrascht und beruht auf den verbesserten Fließeigenschaften des Blutes.

[2] = test system: Kaninchen; test: Arteriosclerosis model under 2 % cholesterol diet, planimetric-photographic (density slice) and histological evaluation of vessels; settings: 112 Tage 2 % cholesterol diet; for Index arteriosklerotischer Gefäßveränderungen (Gefäßverengungen): equimolar amounts, untreated control index 34,36, Fig. 1
Text: (§1) In einer Versuchsreihe mit einem Arteriosklerose-Modell wurden Kaninchen über 112 Tage einer zweiprozentigen Cholesterindiät ausgesetzt und mit äquimolaren Mengen von` Magnesiumchlorid, Orotsäure und Magnesiumorotat bzw. in der Kontrollgruppe überhaupt nicht weiter behandelt. Zusätzlich zu histologischen Untersuchungen der Koronaarterien sowie der Aorta femoralis und renalis wurde der Zustand der Aorta an jeweils mehreren Stellen auch planimetrisch-photographisch dokumentiert. Mittels einer computergestützten, digitalen Methode der Oberflächenmessung ("density slice"-Methode) erhält man hierbei dreidimensionale Bilder, mit deren Hilfe auch eine Quantifizierung der cholesterininduzierten Lumeneinengungen möglich ist.

[3] = test system: Kaninchen; test: Coronary angiography in the arteriosclerosis model of Beispiel 2; settings: cholesterol stress, untreated control developed Mikroangiopathien
Text: as §1
Zusätzlich zu den planimetrisch-photographischen Untersuchungen wurde bei der Versuchsreihe aus Beispiel 2 auch eine koronarangiographische Untersuchung vorgenommen.

[4] = test system: Wistar-Ratten; test: Hypertension animal model (ROG-Modell, LG-Modell), malignant hypertension
Text: In den Hypertonie-Tiermodellen nach Rojo-Ortega-Genest (ROG-Modell) und Lörincz-Goracz (LG-Modell) wird bei Wistar-Ratten die Aorta zwischen den beiden Renalarterien unterbunden bzw. die Niere in eine Gummimanschette fest eingepreßt, was einen malignen Hypertonus hervorruft, also eine Hypertonie mit konstanter Erhöhung des arteriellen diastolischen Blutdruckes auf > 120 mmHg.
Das Ergebnis dieser Untersuchung ist in Fig. 2 dargestellt, wobei die dunklen Säulen jeweils den Beginn der ROG-Hypertonie anzeigen, während die hellen Säulen das Ende der ROG-Hypertonie darstellen. Links in Fig. 2 ist die ROG-Hypertonie ohne Behandlung gezeigt, während die beiden rechten Säulen den Verlauf der ROG-Hypertonie unter Zugabe von täglich 300 mg Magnesiumorotat wiedergibt.

[5] = test system: Triathleten; test: Double-blind, randomised, placebo-controlled triathlon test, parameters of energy metabolism in blood; settings: four weeks Magnesiumorotat 17 mmol/Tag
Text: In einer doppelblinden, randomisierten und placebokontrollierten Studie wurden 23 Triathleten einem 500 m Schwimm-, 20 km Fahrrad- und 5.000 m Lauftest nach einer vierwöchigen Magnesiumorotat-Supplementierung von 17 mmol/Tag unterworfen. Die Tests wurden ohne Pausen direkt hintereinander absolviert. Vor dem Test, zwischen den Disziplinen und am Ende wurde den Probanden Blut entnommen und auf Parameter des Energiestoffwechsels untersucht.

Row | SMILES | systemischer Druck, insbesondere systolischer Druck ([1]; 4 g Magnesiumorotat oral, single dose, 10 patients, until 60 Minuten after tablet intake) | Erythrozytenfiltrationswerte ([1]; 4 g Magnesiumorotat oral, 15-180 Minuten after intake) | transkutane Sauerstoffdruckwerte (tcpO2-Werte), Vorfuß ([1]; 4 g Magnesiumorotat oral, statistically confirmed at 15 and 30 Minuten) | Hämatokritwert ([1]; 4 g Magnesiumorotat oral, tendency to rise again at end of test) | Zeitpunkt des Minimums der Blutviskosität ([1]; 4 g Magnesiumorotat oral, time after tablet intake) [Minuten] | Zeitpunkt des Minimums der relativen Plasmaviskosität ([1]; 4 g Magnesiumorotat oral, time after tablet intake, then tendency to normalise) [Minuten] | Mikrozirkulation (Kapillarfluß an dem Nagelbett) ([1]; acute oral dose of 4 g Magnesiumorotat) | Blut- und Plasmaviskosität ([1]; acute oral dose of 4 g Magnesiumorotat, patients with arterial occlusive disease) | Index arteriosklerotischer Gefäßveränderungen (Gefäßverengungen) [2] | lumeneinengende Proliferation von Schaumzellen in den Koronarien ([2]; light/electron microscopy, enzyme histochemistry) | Wirkung bei Mikroangiopathien von kleinen und kleinsten Blutgefäßen am Herzen [3] | periarterielle Zellinfiltrationen und Herzmuskelzellausfälle ([4]; 300 mg Magnesiumorotat daily, compared with no treatment) | Blutdruck systolisch, Ende der ROG-Hypertonie ([4]; ROG-Modell, 300 mg Magnesiumorotat daily, untreated control animals 186 mmHg) [mmHg] | Blutdruck systolisch, Ausgangswert ([4]; ROG-Modell, start of ROG-Hypertonie, treated group, control 81 mmHg) [mmHg] | Insulinkonzentration ([5]; control group 139 ± 101 %, significant) [% der Anfangswerte] | Anstieg der Glukosekonzentration während des Tests ([5]; control group 187 ± 34 %, significantly lower) [%]
1 | O=C(O)c1cc(=O)[nH]c(=O)[nH]1 [Magnesiumorotat] | Senkung | zu keinem Zeitpunkt nach der oralen Gabe von Magnesiumorotat zu statistisch signifikanten Veränderungen | Anstieg | temporäre Abnahme | 30 | 60 | erheblich verbesserten | signifikant vermindert | 7,28 | weitaus am geringsten ausgeprägt | präventive und therapeutische Wirkung | weit weniger | 152 | 79 | 65 ± 43 | 118 ± 45
2 | [Cl-].[Cl-].[Mg+2] [Magnesiumchlorid, reference compound] |  |  |  |  |  |  |  |  | 22,63 |  |  |  |  |  |  | 
3 | O=C(O)c1cc(=O)[nH]c(=O)[nH]1 [Orotsäure] |  |  |  |  |  |  |  |  | 9,77 |  | präventive und therapeutische Wirkung |  |  |  |  | 
